Laboratory results reported in patent US6075132A, “Ursodeoxycholic acid derivatives and methods for producing them” (Bio Research Corporation of Yokohama, priority 1998, dated 2000).
≈ marks a conversion by molar mass, not a printed value. Like-named read-outs stand apart in the source and are kept apart here.

Experiment: Solubility in water (membrane-filtered supernatant after 18 h stirring; phenol-sulfuric acid method and HPLC)
Format: physicochemical
Conditions: for solubility in water relative to that of ursodeoxycholic acid: 1080 min
Description: 20 mg of the ursodeoxycholic acid derivative prepared above and shown in Table 1 below was sampled, to which was added 0.2 ml of water and stirred for 18 hours. The resulting supernatant was taken out through filtration with a membrane filter (0.45μm), and analyzed according to the phenol-sulfuric acid method and through HPLC. The condition for HPLC was as follows:
Column: YMC's YMC-Pack ODS-AQ-303 (4.6×250 mm)
Detector: Photo-diode array detector (202 nm)
Amount Charged into Column: 20 μl

With C[C@H](CCC(=O)O)[C@H]1CC[C@H]2[C@@H]3[C@@H](O)C[C@@H]4C[C@H](O)CC[C@]4(C)[C@H]3CC[C@]12C [Ursodeoxycholic acid, ursodeoxycholic acid] the solubility at 18 h (water, stirred for 18 hours, read-out: Solubility in Water) was 38 µg/mL (≈ 96.8 µM).
With C[C@H](CCC(=O)O)[C@H]1CC[C@H]2[C@@H]3[C@@H](OC(=O)COC4O[C@H](CO)[C@@H](O)[C@H](O)[C@H]4O)C[C@@H]4C[C@H](OC(=O)COC5O[C@H](CO)[C@@H](O)[C@H](O)[C@H]5O)CC[C@]4(C)[C@H]3CC[C@]12C (stereo partly drawn) [3,7-GLG-ursodeoxycholic acid, diglycosyloxyacetyl-3,7-ursodeoxycholic acid] the “solubility in water relative to that of ursodeoxycholic acid” value was “about 2500 times”, the solubility at 18 h (water) was 95000 µg/mL (≈ 114000 µM) and the “Solubility in Water” value (water, 18 h) was 95000 µg/mL (≈ 114000 µM).
With C[C@H](CCC(=O)OCCOC1O[C@H](CO)[C@@H](O)[C@H](O)[C@H]1O)[C@H]1CC[C@H]2[C@@H]3[C@@H](O)C[C@@H]4C[C@H](O)CC[C@]4(C)[C@H]3CC[C@]12C (stereo partly drawn) [24-GLG-ursodeoxycholic acid, glycosyloxyethyl-24-ursodeoxycholic acid] the “solubility in water relative to that of ursodeoxycholic acid” value was “about 13 times” and the solubility at 18 h (water) was 511 µg/mL (≈ 853 µM).
